# Patent publication US6355799B1, “Substituted benzene compounds, process for their preparation, and herbicidal and defoliant compositions containing them” (ISK Americas Incorporated, priority 1997, dated 2002)
# Legend:
# Type in all cases: in vivo
# [1] = tested on: upland rice (Oryza sp., var. Tebonnet, RICE); experiment: Post-emerge test, crop safety; conditions: post-emerge, 14 days after application, rating scale 0-100
# In short: (§1)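 Each test used a mechanized track sprayer delivering 187 l/ha of acetone solution at 15–1000 g ai/ha. Post-emerge foliage at 2–3 leaves was treated with added 0.25% v/v non-ionic surfactant and bottom-watered only. Injury was assessed on day 14, where 100 means total kill.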
# [2] = tested on: field corn (Zea mays L., var. Dekalb 535, CORN); experiment: Post-emerge test, crop safety; conditions: post-emerge, 14 days after application, rating scale 0-100
# In short: as §1
# [3] = tested on: green foxtail (Setaria viridis, SETVI); experiment: Pre-emerge test, greenhouse herbicide activity screening; conditions: for phytotoxicity rating SETVI: pre-emerge, 14 days after application, scale 0-100; for Pre-emerge Herbicidal Activity SETVI: phytotoxicity rating 0-100, 14 days after application
# In short: (§2)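 Plants grown in 10 cm pots of sandy loam mix received acetone-dissolved compounds through a moving flat-fan nozzle. Doses ranged from 15 to 1000 g ai/ha. Pre-emerge pots were seeded one day earlier, post-emerge pots 8–21 days earlier. Fourteen days on, each pot was graded 0–100 for damage.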
# [4] = tested on: sicklepod (Cassia obtusifolia, CASOB); experiment: as above; conditions: for phytotoxicity rating CASOB: pre-emerge, 14 days after application, scale 0-100; for Pre-emerge Herbicidal Activity CASOB: phytotoxicity rating 0-100, 14 days after application
# In short: as §2
# [5] = tested on: velvetleaf (Abutilon theophrasti, ABUTH); experiment: as above; conditions: for phytotoxicity rating ABUTH: pre-emerge, 14 days after application, scale 0-100; for Pre-emerge Herbicidal Activity ABUTH: phytotoxicity rating 0-100, 14 days after application
# In short: as §2
# [6] = tested on: lambsquarters (Chenopodium album, CHEAL); experiment: as above; conditions: for phytotoxicity rating CHEAL: pre-emerge, 14 days after application, scale 0-100; for Pre-emerge Herbicidal Activity CHEAL: phytotoxicity rating 0-100, 14 days after application
# In short: as §2
# [7] = tested on: johnsongrass (Sorghum halepense, SORHA); experiment: as above; conditions: for phytotoxicity rating SORHA: pre-emerge, 14 days after application, scale 0-100; for Pre-emerge Herbicidal Activity SORHA: phytotoxicity rating 0-100, 14 days after application
# In short: as §2
# [8] = tested on: barnyardgrass (Echinochloa crus-galli, ECHCG); experiment: as above; conditions: for phytotoxicity rating ECHCG: pre-emerge, 14 days after application, scale 0-100; for Pre-emerge Herbicidal Activity ECHCG: phytotoxicity rating 0-100, 14 days after application
# In short: as §2
# [9] = tested on: ivyleaf morningglory (Ipomoea hederacea, IPOHE); experiment: as above; conditions: for phytotoxicity rating IPOHE: pre-emerge, 14 days after application, scale 0-100; for Pre-emerge Herbicidal Activity IPOHE: phytotoxicity rating 0-100, 14 days after application
# In short: as §2
# [10] = tested on: large crabgrass (Digitaria sanguinalis, DIGSA); experiment: as above; conditions: for phytotoxicity rating DIGSA: pre-emerge, 14 days after application, scale 0-100; for Pre-emerge Herbicidal Activity DIGSA: phytotoxicity rating 0-100, 14 days after application
# In short: as §2
# [11] = tested on: upland rice (Oryza sp., var. Tebonnet, RICE); experiment: Pre-emerge test, crop safety; conditions: for phytotoxicity rating RICE (crop damage): pre-emerge, 14 days after application, scale 0-100; for Pre-emerge Herbicidal Activity RICE: crop damage rating 0-100, 14 days after application
# In short: (§3)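 Sandy loam pots; pre-emerge: sown 1 d pre-spray, surface-watered after, then bottom-watered. Post-emerge: sown 8–21 d before, 2–3 leaf stage, + 0.25% v/v NIS, bottom-watered. Acetone, 187 l/ha track spray, 15–1000 g ai/ha. 0–100 injury score, day 14.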
# [12] = tested on: field corn (Zea mays L., var. Dekalb 535, CORN); experiment: Pre-emerge test, crop safety; conditions: for phytotoxicity rating CORN (crop damage): pre-emerge, 14 days after application, scale 0-100; for Pre-emerge Herbicidal Activity CORN: crop damage rating 0-100, 14 days after application
# In short: as §3
# [13] = tested on: redroot pigweed (Amaranthus retroflexus, AMARE); experiment: Post-emerge test, greenhouse herbicide activity screening; conditions: post-emerge, 14 days after application
# In short: (§4)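 Applied at 15–1000 g ai/ha from acetone in 187 l/ha spray volume. Post-emergence applications included 0.25% v/v non-ionic surfactant and reached plants sown 8–21 days before. Pre-emergence applications were incorporated by surface watering. Efficacy or crop damage was rated on a 0–100 scale after 14 days.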
# [14] = tested on: green foxtail (Setaria viridis, SETVI); experiment: as above; conditions: post-emerge, 14 days after application, rating scale 0-100
# In short: as §4
# [15] = tested on: sicklepod (Cassia obtusifolia, CASOB); experiment: as above; conditions: post-emerge, 14 days after application, rating scale 0-100
# In short: as §4
# [16] = tested on: velvetleaf (Abutilon theophrasti, ABUTH); experiment: as above; conditions: post-emerge, 14 days after application, rating scale 0-100
# In short: as §4
# [17] = tested on: lambsquarters (Chenopodium album, CHEAL); experiment: as above; conditions: post-emerge, 14 days after application, rating scale 0-100
# In short: as §4
# [18] = tested on: barnyardgrass (Echinochloa crus-galli, ECHCG); experiment: as above; conditions: post-emerge, 14 days after application, rating scale 0-100
# In short: as §4
# [19] = tested on: ivyleaf morningglory (Ipomoea hederacea, IPOHE); experiment: as above; conditions: post-emerge, 14 days after application, rating scale 0-100
# In short: as §4
# [20] = tested on: large crabgrass (Digitaria sanguinalis, DIGSA); experiment: as above; conditions: post-emerge, 14 days after application, rating scale 0-100
# In short: as §4
# [21] = tested on: redroot pigweed (Amaranthus retroflexus, AMARE); experiment: Pre-emerge test, greenhouse herbicide activity screening; conditions: for phytotoxicity rating AMARE: pre-emerge, 14 days after application, scale 0-100; for Pre-emerge Herbicidal Activity AMARE: phytotoxicity rating 0-100, 14 days after application
# In short: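 Visual ratings on a 0-100 scale (0 no damage, 100 all plants dead) were taken at 14 days after treatment. Rates of 15-1000 g ai/ha in acetone, 187 l/ha, were sprayed onto soil one day after planting (pre-emerge) or onto 2-3 leaf plants with 0.25% v/v surfactant (post-emerge).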
# [22] = 250 g ai/ha, rating scale 0-100
smiles,measurement,setting,value
COc1c(Cl)cc(F)c(-n2c(=O)cc(C(F)(F)F)n(C)c2=O)c1NC(=O)COc1ccc(F)cc1 [2-133],RICE phytotoxicity rating (crop damage),[1]; 63 g ai/ha,80
same,RICE phytotoxicity rating (crop damage),[1]; 250 g ai/ha,95
same,CORN phytotoxicity rating (crop damage),[2]; 63 g ai/ha,70
same,CORN phytotoxicity rating (crop damage),[2]; 250 g ai/ha,95
same,phytotoxicity rating SETVI,[3]; 63 g ai/ha,95
same,phytotoxicity rating SETVI,[3]; 250 g ai/ha,100
same,phytotoxicity rating CASOB,[4]; 63 g ai/ha,55
same,phytotoxicity rating CASOB,[4]; 250 g ai/ha,100
same,phytotoxicity rating ABUTH,[5]; 63 g ai/ha,100
same,phytotoxicity rating ABUTH,[5]; 250 g ai/ha,100
same,phytotoxicity rating CHEAL,[6]; 63 g ai/ha,100
same,phytotoxicity rating CHEAL,[6]; 250 g ai/ha,100
same,phytotoxicity rating SORHA,[7]; 63 g ai/ha,75
same,phytotoxicity rating SORHA,[7]; 250 g ai/ha,100
same,phytotoxicity rating ECHCG,[8]; 63 g ai/ha,65
same,phytotoxicity rating ECHCG,[8]; 250 g ai/ha,95
same,phytotoxicity rating IPOHE,[9]; 63 g ai/ha,80
same,phytotoxicity rating IPOHE,[9]; 250 g ai/ha,100
same,phytotoxicity rating DIGSA,[10]; 63 g ai/ha,95
same,phytotoxicity rating DIGSA,[10]; 250 g ai/ha,100
same,phytotoxicity rating RICE (crop damage),[11]; 63 g ai/ha,70
same,phytotoxicity rating RICE (crop damage),[11]; 250 g ai/ha,93
same,phytotoxicity rating CORN (crop damage),[12]; 63 g ai/ha,20
same,phytotoxicity rating CORN (crop damage),[12]; 250 g ai/ha,80
same,AMARE phytotoxicity rating,"[13]; 63 g ai/ha, rating scale 0-100",100
same,AMARE phytotoxicity rating,[13]; [22],100
same,SETVI phytotoxicity rating,[14]; 63 g ai/ha,70
same,SETVI phytotoxicity rating,[14]; 250 g ai/ha,75
same,CASOB phytotoxicity rating,[15]; 63 g ai/ha,80
same,CASOB phytotoxicity rating,[15]; 250 g ai/ha,100
same,ABUTH phytotoxicity rating,[16]; 63 g ai/ha,100
same,ABUTH phytotoxicity rating,[16]; 250 g ai/ha,100
same,CHEAL phytotoxicity rating,[17]; 63 g ai/ha,100
same,CHEAL phytotoxicity rating,[17]; 250 g ai/ha,100
same,ECHCG phytotoxicity rating,[18]; 63 g ai/ha,50
same,ECHCG phytotoxicity rating,[18]; 250 g ai/ha,85
same,IPOHE phytotoxicity rating,[19]; 63 g ai/ha,90
same,IPOHE phytotoxicity rating,[19]; 250 g ai/ha,100
same,DIGSA phytotoxicity rating,[20]; 63 g ai/ha,30
same,DIGSA phytotoxicity rating,[20]; 250 g ai/ha,70
same,phytotoxicity rating AMARE,[21]; 63 g ai/ha,100
same,phytotoxicity rating AMARE,[21]; 250 g ai/ha,100
COc1c(Cl)cc(F)c(-n2c(=O)cc(C(F)(F)F)n(C)c2=O)c1NC(=O)OCc1c(F)c(F)c(F)c(F)c1F [4-48],phytotoxicity rating RICE (crop damage),[1]; 63 g ai/ha,80
same,phytotoxicity rating RICE (crop damage),[1]; 250 g ai/ha,80
same,phytotoxicity rating CORN (crop damage),[2]; 63 g ai/ha,90
same,phytotoxicity rating CORN (crop damage),[2]; 250 g ai/ha,90
same,Pre-emerge Herbicidal Activity SETVI,[3]; 63 g ai/ha,100
same,Pre-emerge Herbicidal Activity SETVI,[3]; 250 g ai/ha,100
same,Pre-emerge Herbicidal Activity CASOB,[4]; 63 g ai/ha,40
same,Pre-emerge Herbicidal Activity CASOB,[4]; 250 g ai/ha,100
same,Pre-emerge Herbicidal Activity ABUTH,[5]; 63 g ai/ha,100
same,Pre-emerge Herbicidal Activity ABUTH,[5]; 250 g ai/ha,100
same,Pre-emerge Herbicidal Activity CHEAL,[6]; 63 g ai/ha,100
same,Pre-emerge Herbicidal Activity CHEAL,[6]; 250 g ai/ha,100
same,Pre-emerge Herbicidal Activity SORHA,[7]; 63 g ai/ha,60
same,Pre-emerge Herbicidal Activity SORHA,[7]; 250 g ai/ha,90
same,Pre-emerge Herbicidal Activity ECHCG,[8]; 63 g ai/ha,50
same,Pre-emerge Herbicidal Activity ECHCG,[8]; 250 g ai/ha,70
same,Pre-emerge Herbicidal Activity IPOHE,[9]; 63 g ai/ha,80
same,Pre-emerge Herbicidal Activity IPOHE,[9]; 250 g ai/ha,100
same,Pre-emerge Herbicidal Activity DIGSA,[10]; 63 g ai/ha,100
same,Pre-emerge Herbicidal Activity DIGSA,[10]; 250 g ai/ha,100
same,Pre-emerge Herbicidal Activity RICE,[11]; 63 g ai/ha,20
same,Pre-emerge Herbicidal Activity RICE,[11]; 250 g ai/ha,70
same,Pre-emerge Herbicidal Activity CORN,[12]; 63 g ai/ha,30
same,Pre-emerge Herbicidal Activity CORN,[12]; 250 g ai/ha,50
same,phytotoxicity rating AMARE,"[13]; 63 g ai/ha, rating scale 0-100 (0 no damage, 100 complete death)",100
same,phytotoxicity rating AMARE,[13]; [22],100
same,phytotoxicity rating SETVI,[14]; 63 g ai/ha,30
same,phytotoxicity rating SETVI,[14]; 250 g ai/ha,40
same,phytotoxicity rating CASOB,[15]; 63 g ai/ha,95
same,phytotoxicity rating CASOB,[15]; 250 g ai/ha,100
same,phytotoxicity rating ABUTH,[16]; 63 g ai/ha,100
same,phytotoxicity rating ABUTH,[16]; 250 g ai/ha,100
same,phytotoxicity rating CHEAL,[17]; 63 g ai/ha,100
same,phytotoxicity rating CHEAL,[17]; 250 g ai/ha,100
same,phytotoxicity rating ECHCG,[18]; 63 g ai/ha,20
same,phytotoxicity rating ECHCG,[18]; 250 g ai/ha,80
same,phytotoxicity rating IPOHE,[19]; 63 g ai/ha,100
same,phytotoxicity rating IPOHE,[19]; 250 g ai/ha,100
same,phytotoxicity rating DIGSA,[20]; 63 g ai/ha,20
same,phytotoxicity rating DIGSA,[20]; 250 g ai/ha,40
same,Pre-emerge Herbicidal Activity AMARE,[21]; 63 g ai/ha,100
same,Pre-emerge Herbicidal Activity AMARE,[21]; 250 g ai/ha,100
